Where two headings read alike, the source gives them in different places.
Columns and labels:
human sucrase = human sucrase (Homo sapiens, UniProt P14410); settings: in vitro; cited from earlier work
rabbit sucrase = rabbit sucrase (Oryctolagus cuniculus, UniProt P07768); settings: in vitro; cited from earlier work
maltase = settings: in vitro; cited from earlier work
human lactase = human lactase (Homo sapiens, UniProt P09848); settings: in vitro; cited from earlier work
rabbit maltase = settings: in vitro; cited from earlier work
human small intestine = settings: cited from earlier work
plasma glucose [1] = assay: OTT, aqueous solutions (25 g in 100 g water), type 2 diabetic subject (DM2); assay type: in vivo, human
Protocol: (§1) Test articles were aqueous solutions (in 200 g water) of 50 g of total carbohydrates, which were prepared early in the morning before the test. All of the same protocol criteria were applied for the test, as described in Example 1 above, except that times for blood samples were 0, 30, 45, 60, 90, 120, and 180 minutes. The test subjects were Subject #1, described above, and Subject #2, a healthy person (BMI=27.7 kg/m^2). See FIGS. 3 and 2, respectively, for results of their OTT's.
Calculation of estimated caloric value (ECV) demands some explanation here, as the calculation requires acceptance of some reasonable assumptions: • GI values for lactose monohydrate, fructose, sucrose and oat starch are 46, 23, 64, and 100, respectively. • Caloric values for lactose monohydrate, fructose, sucrose and oat starch are 3.8, 3.7, 3.9, and 3.7 kcal/g, respectively. • The order for complete active absorption of sugar mixtures from the small intestine to the bloodstream is fructose>starch (as maltose and α-dextrins)>sucrose>lactose. • Passive absorption of unhydrolyzed disaccharides is assumed to be zero for these calculations. • Disaccharides not actively absorbed pass to the colon, where they are fully degraded by microflora. • 78% of the disaccharides form short chain fatty acids (SCFA's), which are fully absorbed and used by the body with 50%×0.85=42.5% energy efficiency vs glucose (Livesey, Int J Food Sci Nutr, 44, 221-241, 1993). • 22% of the disaccharides are converted to biomass, which is calorically unavailable to the host (Weber et al, J Lab Clin Med, 110, 259-263, 1987). • NB—Starch (not part of the sweetener) which passes to the colon and is degraded microbially subtracts energy value from the sweetener, a component of which (lactose) caused it to pass to the colon.
The type 2 diabetic subject (DM2) was a person (BMI=32.8 kg/m^2), who was trying to control their diabetes without insulin or oral medications. Their daily drug regimen included Premarin®, Prempro®, Xenical®, and Lipitor®, all taken after OTT was completed each day. […]

blood glucose = settings: diabetic volunteers after normal insulin or oral agents, vs glucose (GI=100); cited from earlier work
plasma glucose [2] = assay: OTT, aqueous sugar solutions (50 g in 200 g water), Subject #1; assay type: in vivo, human; settings: Subject #1, N=3
Protocol: The test subject (Subject #1) was a person in good health, with a body mass index (BMI) equal to 28.6 kg/m^2. The subject was required to exercise moderately at least 30 minutes each day before testing, sleep at least 7 hours the previous night, and fast for no less than 12 hours prior to oral tolerance testing (OTT) early the next morning. Water was restricted 1.5 hours prior to testing, and only small sips of water were allowed infrequently during OTT. The test article, described below, was ingested as quickly as possible after the time 0 blood sample was obtained. Subsequent blood samples were taken at 30, 60, 90, 120, 150, and 180 minutes, and plasma glucose measurements were recorded in units of mg/dL immediately each time using a hand-held glucometer (At•Last model, Amira Medical, Scotts Valley, Calif. 95066). The subject abstained from food and remained sedentary during the 3-hour test. Clinical observations were noted and recorded continuously.
as §1, with “See FIGS. 3 and 2, respectively, for results of their OTT's.” left out

plasma glucose [3] = settings: untreated diabetics, Gannon et al; cited from earlier work
plasma glucose [4] = settings: glucose = 100, cited from earlier work
rats [5] = settings: cited from earlier work
rats [6] = settings: cited from earlier work; for body fat lowering vs controls: pair-fed rats
[7] = pair-feeding, lactose 30% of diet (Février 1969)
[8] = weanling male rats, 12% lactose, six weeks (Ali and Evans 1971)

Sequence of human lactase (P09848 869-1927): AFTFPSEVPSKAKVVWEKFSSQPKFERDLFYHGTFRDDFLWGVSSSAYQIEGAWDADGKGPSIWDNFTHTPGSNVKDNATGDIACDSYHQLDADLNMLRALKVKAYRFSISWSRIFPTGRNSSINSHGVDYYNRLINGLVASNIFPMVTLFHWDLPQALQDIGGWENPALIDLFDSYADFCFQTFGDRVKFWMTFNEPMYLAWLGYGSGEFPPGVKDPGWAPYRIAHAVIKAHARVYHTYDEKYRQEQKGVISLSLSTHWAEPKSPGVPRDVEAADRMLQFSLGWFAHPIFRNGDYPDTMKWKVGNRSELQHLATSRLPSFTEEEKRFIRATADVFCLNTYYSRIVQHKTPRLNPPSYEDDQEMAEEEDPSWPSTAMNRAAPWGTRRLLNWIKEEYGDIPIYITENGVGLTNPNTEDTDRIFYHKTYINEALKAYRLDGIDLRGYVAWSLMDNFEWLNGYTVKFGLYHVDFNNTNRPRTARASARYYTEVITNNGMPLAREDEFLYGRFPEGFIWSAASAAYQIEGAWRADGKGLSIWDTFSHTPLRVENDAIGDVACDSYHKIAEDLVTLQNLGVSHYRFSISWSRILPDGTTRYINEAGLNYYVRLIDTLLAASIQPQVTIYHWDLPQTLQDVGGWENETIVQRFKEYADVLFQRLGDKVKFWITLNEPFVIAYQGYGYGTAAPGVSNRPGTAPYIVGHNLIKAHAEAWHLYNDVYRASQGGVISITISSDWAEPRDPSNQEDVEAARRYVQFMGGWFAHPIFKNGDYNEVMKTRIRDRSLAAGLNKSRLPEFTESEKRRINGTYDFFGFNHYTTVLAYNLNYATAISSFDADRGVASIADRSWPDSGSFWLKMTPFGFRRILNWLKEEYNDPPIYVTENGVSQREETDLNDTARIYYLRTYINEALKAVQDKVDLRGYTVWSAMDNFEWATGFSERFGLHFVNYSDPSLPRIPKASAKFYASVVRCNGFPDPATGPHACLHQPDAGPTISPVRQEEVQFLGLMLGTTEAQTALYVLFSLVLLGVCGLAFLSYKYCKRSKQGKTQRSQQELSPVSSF
Sequence of human sucrase (P14410 whole entry): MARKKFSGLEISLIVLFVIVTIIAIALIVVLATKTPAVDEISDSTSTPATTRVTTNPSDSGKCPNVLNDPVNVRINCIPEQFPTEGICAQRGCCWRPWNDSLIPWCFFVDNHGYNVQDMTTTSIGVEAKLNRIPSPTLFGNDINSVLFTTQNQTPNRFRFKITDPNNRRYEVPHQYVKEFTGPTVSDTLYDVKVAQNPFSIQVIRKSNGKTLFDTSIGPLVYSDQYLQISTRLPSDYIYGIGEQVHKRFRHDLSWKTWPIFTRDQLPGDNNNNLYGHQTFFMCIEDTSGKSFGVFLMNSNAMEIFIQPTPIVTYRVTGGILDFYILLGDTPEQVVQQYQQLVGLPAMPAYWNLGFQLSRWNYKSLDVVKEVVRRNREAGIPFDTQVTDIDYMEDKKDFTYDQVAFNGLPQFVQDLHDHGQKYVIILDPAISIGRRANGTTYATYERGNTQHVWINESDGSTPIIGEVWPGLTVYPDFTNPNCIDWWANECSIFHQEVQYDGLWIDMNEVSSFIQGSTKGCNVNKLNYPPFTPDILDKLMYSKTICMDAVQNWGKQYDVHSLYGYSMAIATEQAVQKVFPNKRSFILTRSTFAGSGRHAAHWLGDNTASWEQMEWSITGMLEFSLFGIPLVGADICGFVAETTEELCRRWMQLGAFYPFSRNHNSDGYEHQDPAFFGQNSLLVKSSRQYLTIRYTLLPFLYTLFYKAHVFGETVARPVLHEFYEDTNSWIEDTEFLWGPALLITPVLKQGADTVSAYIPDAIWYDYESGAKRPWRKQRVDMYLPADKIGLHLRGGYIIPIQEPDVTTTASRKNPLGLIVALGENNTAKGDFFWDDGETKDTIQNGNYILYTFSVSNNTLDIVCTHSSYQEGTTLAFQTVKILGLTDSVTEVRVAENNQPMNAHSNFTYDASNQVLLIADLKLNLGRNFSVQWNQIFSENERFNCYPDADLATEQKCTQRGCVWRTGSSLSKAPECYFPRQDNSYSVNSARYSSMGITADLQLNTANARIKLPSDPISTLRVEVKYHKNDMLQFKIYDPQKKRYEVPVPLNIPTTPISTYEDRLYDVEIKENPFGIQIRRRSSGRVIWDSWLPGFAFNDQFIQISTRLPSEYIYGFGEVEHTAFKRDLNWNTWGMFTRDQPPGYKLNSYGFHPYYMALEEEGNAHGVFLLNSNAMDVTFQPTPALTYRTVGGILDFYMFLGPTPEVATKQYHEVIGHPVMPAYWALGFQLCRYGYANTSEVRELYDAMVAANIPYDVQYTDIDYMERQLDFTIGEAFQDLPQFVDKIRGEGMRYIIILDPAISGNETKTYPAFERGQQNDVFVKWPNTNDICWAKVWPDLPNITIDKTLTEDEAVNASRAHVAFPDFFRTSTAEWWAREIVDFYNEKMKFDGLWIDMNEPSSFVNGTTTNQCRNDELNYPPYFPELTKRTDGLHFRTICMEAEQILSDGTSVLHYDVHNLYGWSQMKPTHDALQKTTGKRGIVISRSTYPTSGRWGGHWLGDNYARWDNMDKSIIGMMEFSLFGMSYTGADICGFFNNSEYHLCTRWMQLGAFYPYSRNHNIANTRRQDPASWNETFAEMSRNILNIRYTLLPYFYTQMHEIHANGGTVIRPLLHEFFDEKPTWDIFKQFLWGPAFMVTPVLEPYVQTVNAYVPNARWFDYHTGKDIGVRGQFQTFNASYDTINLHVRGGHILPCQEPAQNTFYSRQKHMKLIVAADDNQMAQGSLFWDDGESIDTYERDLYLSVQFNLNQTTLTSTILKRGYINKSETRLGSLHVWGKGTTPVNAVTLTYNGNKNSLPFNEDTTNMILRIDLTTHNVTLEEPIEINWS
Sequence of rabbit sucrase (P07768 whole entry): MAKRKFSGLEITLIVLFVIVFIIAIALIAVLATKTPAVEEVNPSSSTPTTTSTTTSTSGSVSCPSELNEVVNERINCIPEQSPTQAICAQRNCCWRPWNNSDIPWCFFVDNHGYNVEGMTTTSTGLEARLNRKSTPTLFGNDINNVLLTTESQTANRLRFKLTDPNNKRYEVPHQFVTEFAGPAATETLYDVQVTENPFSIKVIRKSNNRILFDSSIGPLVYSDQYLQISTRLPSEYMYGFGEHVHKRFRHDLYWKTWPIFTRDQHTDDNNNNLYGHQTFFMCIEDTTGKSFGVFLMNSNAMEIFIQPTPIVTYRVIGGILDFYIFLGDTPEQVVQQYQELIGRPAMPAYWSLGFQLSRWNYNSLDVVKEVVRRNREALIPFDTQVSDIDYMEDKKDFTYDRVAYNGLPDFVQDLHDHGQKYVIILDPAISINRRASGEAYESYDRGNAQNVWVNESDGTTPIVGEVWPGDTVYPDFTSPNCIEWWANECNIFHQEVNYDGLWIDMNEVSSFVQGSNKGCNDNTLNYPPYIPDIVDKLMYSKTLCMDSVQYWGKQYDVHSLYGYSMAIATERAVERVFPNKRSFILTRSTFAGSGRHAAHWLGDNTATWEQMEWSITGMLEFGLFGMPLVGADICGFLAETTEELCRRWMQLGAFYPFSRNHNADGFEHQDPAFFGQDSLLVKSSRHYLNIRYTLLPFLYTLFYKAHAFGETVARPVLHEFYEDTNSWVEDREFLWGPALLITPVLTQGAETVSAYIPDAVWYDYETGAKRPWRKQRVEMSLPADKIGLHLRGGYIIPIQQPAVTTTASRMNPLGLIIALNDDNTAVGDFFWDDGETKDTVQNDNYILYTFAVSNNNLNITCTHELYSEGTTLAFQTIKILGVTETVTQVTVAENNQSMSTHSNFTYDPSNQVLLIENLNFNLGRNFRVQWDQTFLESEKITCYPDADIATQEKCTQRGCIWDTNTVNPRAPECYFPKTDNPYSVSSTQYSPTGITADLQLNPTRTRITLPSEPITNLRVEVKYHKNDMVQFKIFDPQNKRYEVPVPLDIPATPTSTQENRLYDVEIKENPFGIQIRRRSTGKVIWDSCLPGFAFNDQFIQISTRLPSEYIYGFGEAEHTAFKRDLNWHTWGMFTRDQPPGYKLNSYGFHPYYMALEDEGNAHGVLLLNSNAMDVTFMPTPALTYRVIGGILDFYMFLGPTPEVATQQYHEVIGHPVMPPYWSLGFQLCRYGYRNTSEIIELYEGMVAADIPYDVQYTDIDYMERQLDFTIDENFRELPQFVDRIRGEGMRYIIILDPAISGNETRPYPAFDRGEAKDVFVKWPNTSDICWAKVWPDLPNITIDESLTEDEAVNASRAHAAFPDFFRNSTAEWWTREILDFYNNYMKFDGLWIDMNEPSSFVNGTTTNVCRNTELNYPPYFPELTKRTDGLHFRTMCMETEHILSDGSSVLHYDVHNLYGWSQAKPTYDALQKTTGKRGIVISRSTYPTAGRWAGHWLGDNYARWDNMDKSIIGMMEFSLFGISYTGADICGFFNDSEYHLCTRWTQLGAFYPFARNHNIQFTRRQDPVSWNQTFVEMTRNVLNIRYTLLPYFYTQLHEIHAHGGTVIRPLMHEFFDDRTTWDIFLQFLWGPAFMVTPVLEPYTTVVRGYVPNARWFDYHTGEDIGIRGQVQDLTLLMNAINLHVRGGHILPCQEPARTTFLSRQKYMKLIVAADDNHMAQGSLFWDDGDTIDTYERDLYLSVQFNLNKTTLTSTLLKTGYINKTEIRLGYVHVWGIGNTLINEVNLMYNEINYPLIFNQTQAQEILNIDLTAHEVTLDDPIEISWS

For `O=C[C@H](O)[C@@H](O)[C@@H](O)[C@H](O)CO` [galactose], the “inhibition of sucrose hydrolysis by human sucrase” value (human sucrase) is listed as “no inhibition”, the “inhibition of rabbit sucrase” value (rabbit sucrase) is listed as “no inhibition” and the “inhibition of maltose hydrolysis by maltase” value (maltase) is listed as “no inhibiting effect”. The “inhibition of lactose hydrolysis by human lactase” value (shortened to “inhibition of lactose hydrolysis”) (human lactase) was “competitively inhibit”, the “inhibition of rabbit maltase” value (rabbit maltase) was “no inhibition” and the “absorption rate relative to fructose” value (human small intestine) was ~1.2 times as fast as fructose.

In the case of `OC[C@H]1O[C@@](CO)(O[C@H]2O[C@H](CO)[C@@H](O)[C@H](O)[C@H]2O)[C@@H](O)[C@@H]1O` [sucrose], the “plasma glucose level relative to 200 mg/dL” value (plasma glucose [1]) is reported as “broke above 200 mg/dL”, the “time of plasma glucose peak” value (plasma glucose [1]) is reported as 45 min and the AUC (plasma glucose [1]; 25 g in 100 g water, N=2) is reported as 6184 mg·min/dL. The “glycemic index (GI)” value (blood glucose) was 63, the “inhibition of lactose hydrolysis” value (human lactase) was “no inhibiting effect” and the AUC (plasma glucose [2]) was 2935 mg·min/dL. The GI values (plasma glucose [3]) was 43, the “glycemic index (GI)” value (plasma glucose [4]) was 64 and the “glycemic index (GI)” value (plasma glucose [4]; listed as SU) was 64.

For `OC[C@H]1O[C@H](O[C@H]2[C@H](O)[C@@H](O)[C@H](O)O[C@@H]2CO)[C@H](O)[C@@H](O)[C@@H]1O` [maltose], the “inhibition of lactose hydrolysis” value (human lactase) is given as “no inhibiting effect”.

For `OC[C@H]1O[C@@H](O[C@H]2[C@H](O)[C@@H](O)C(O)O[C@@H]2CO)[C@H](O)[C@@H](O)[C@H]1O` (some centres unmarked) [lactose], the “glycemic index (GI)” value (blood glucose) is given as 48, the GI values (plasma glucose [3]) is given as 32 and the “relative availability compared to glucose” value (rats [5]; bioassay based on plasma ketones) is given as 0.59. The “relative availability compared to glucose” value (rats [5]; bioassay based on weight gain) was 0.57, the metabolizable energy value (rats [5]) was 2.1 kcal/g and the “glycemic index (GI)” value (plasma glucose [4]) was 46. The “reduction of fat content” value (rats [6]; ad libitum feeding, lactose 30% of diet (Février 1969)) was 20%, the “reduction of growth rate” value (rats [6]; ad libitum feeding, lactose 30% of diet vs starch control (Février 1969)) was 37% and the “reduction of fat content” value (rats [6]; equalized-growth-feeding, lactose 30% of diet (Février 1969)) was 12%. The “body fat lowering vs controls” value (rats [6]; lactose 30% of diet (Whittier et al 1935)) was 38%, the “body fat lowering vs controls” value (rats [6]; lactose 50% of diet (Baker et al 1967)) was 48% and the “body fat lowering vs controls” value (rats [6]; lactose 52% of diet (Tomarelli et al 1960)) was 40%. For the same compound, the “reduction of fat content” value (rats [6]; [7]) was 32%, the “reduction of growth rate” value (rats [6]; [7]) was 23% and the body fat reduction (rats [6]; [8]) was 30%. For the same compound, the body moisture increase (rats [6]; [8]) was 11%.

In the case of `O=C(CO)[C@@H](O)[C@H](O)[C@H](O)CO` [fructose], the “inhibition of sucrose hydrolysis by human sucrase” value (human sucrase) is given as “inhibit”, the “glycemic index (GI)” value (blood glucose) is given as 24 and the “inhibition of maltose hydrolysis by maltase” value (maltase) is given as “no inhibiting effect”. For the same compound, the “inhibition of lactose hydrolysis” value (human lactase) was “competitively inhibit”, the GI values (plasma glucose [3]) was 6 and the “glycemic index (GI)” value (plasma glucose [4]) was 23.

From patent US7560443B2, “Mixtures of fructose, sucrose and lactose as a low-calorie bulk sweetener with reduced glycemic index” (Vivalac, Inc. A Maryland Corp., priority 2002, dated 2009)
